target: T1, human PAH with the R408W mutation (Homo sapiens, UniProt P00439, R408W); experiment: Cell Based Phenylalanine Flux Assay; details: A375 cells expressing human R408W PAH; 24 hrs compound incubation; 13C-Tyrosine by LC-MS; average where tested multiple times; read-out: AC50
T1 construct: expressed in transfected cells
T1 sequence (P00439 1-452 R408W): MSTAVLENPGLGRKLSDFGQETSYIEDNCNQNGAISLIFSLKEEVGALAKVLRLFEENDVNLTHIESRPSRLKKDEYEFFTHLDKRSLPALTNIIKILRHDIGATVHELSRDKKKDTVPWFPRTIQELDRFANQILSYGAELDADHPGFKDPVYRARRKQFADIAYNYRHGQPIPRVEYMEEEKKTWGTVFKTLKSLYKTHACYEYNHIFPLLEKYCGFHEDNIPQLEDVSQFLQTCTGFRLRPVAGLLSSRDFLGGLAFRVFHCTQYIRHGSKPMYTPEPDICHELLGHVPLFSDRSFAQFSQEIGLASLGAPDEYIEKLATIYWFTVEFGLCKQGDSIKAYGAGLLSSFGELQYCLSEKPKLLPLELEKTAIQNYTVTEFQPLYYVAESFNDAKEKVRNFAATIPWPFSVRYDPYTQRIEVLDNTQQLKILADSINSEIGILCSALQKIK

| AC50 [nM] | SMILES |
| --- | --- |
| < 500 | O=C(c1oc(-c2ccccn2)nc1C(F)(F)F)N1CCc2[nH]cnc2[C@H]1c1nc2c(F)cccc2s1 [Example 1611, (S)-(4-(4-fluorobenzo[d]thiazol-2-yl)-6,7-dihydro-1H-imidazo[4,5-c]pyridin-5(4H)-yl)(2-(pyridin-2-yl)-4-(trifluoromethyl)oxazol-5-yl)methanone] |
| < 500 | O=C(c1oc(-c2ccccn2)nc1C(F)(F)F)N1CCc2[nH]cnc2[C@@H]1c1nc2c(F)cccc2s1 [Example 1612, (R)-(4-(4-fluorobenzo[d]thiazol-2-yl)-6,7-dihydro-1H-imidazo[4,5-c]pyridin-5(4H)-yl)(2-(pyridin-2-yl)-4-(trifluoromethyl)oxazol-5-yl)methanone] |
| < 500 | Cn1cc(C(=O)N2CCc3[nH]cnc3[C@H]2c2nc3c(F)cccc3s2)c(C(F)(F)F)n1 [Example 1613, (S)-(4-(4-fluorobenzo[d]thiazol-2-yl)-6,7-dihydro-1H-imidazo[4,5-c]pyridin-5(4H)-yl)(1-methyl-3-(trifluoromethyl)-1H-pyrazol-4-yl)methanone] |
| < 500 | Cn1cc(C(=O)N2CCc3[nH]cnc3[C@@H]2c2nc3c(F)cccc3s2)c(C(F)(F)F)n1 [Example 1614, (R)-(4-(4-fluorobenzo[d]thiazol-2-yl)-6,7-dihydro-1H-imidazo[4,5-c]pyridin-5(4H)-yl)(1-methyl-3-(trifluoromethyl)-1H-pyrazol-4-yl)methanone] |
| < 500 | O=C(c1ocnc1C(F)F)N1CCc2[nH]cnc2[C@H]1c1nc2c(F)cccc2s1 [Example 1615] |
| 500 to 1000 | O=C(c1ocnc1C(F)F)N1CCc2[nH]cnc2[C@@H]1c1nc2c(F)cccc2s1 [Example 1616, (R)-(4-(difluoromethyl)oxazol-5-yl)(4-(4-fluorobenzo[d]thiazol-2-yl)-6,7-dihydro-1H-imidazo[4,5-c]pyridin-5(4H)-yl)methanone] |
| 500 to 1000 | CN(C)Cc1ccc2c(C(=O)N3CCc4[nH]cnc4[C@H]3c3nc4c(F)cccc4s3)cnn2c1 [Example 1619, (S)-(6-((dimethylamino)methyl)pyrazolo[1,5-a]pyridin-3-yl)(4-(4-fluorobenzo[d]thiazol-2-yl)-6,7-dihydro-1H-imidazo[4,5-c]pyridin-5(4H)-yl)methanone] |
| > 5000 | CN(C)Cc1ccc2c(C(=O)N3CCc4[nH]cnc4[C@@H]3c3nc4c(F)cccc4s3)cnn2c1 [Example 1620, (R)-(6-((dimethylamino)methyl)pyrazolo[1,5-a]pyridin-3-yl)(4-(4-fluorobenzo[d]thiazol-2-yl)-6,7-dihydro-1H-imidazo[4,5-c]pyridin-5(4H)-yl)methanone] |
| < 500 | O=C(c1oc(C2CC2)nc1C(F)F)N1CCc2[nH]cnc2[C@H]1c1nc2ccccc2s1 [Example 1621] |
| < 500 | O=C(c1oc(C2CC2)nc1C(F)F)N1CCc2[nH]cnc2[C@@H]1c1nc2ccccc2s1 [Example 1622, (R)-(4-(benzo[d]thiazol-2-yl)-6,7-dihydro-1H-imidazo[4,5-c]pyridin-5(4H)-yl)(2-cyclopropyl-4-(difluoromethyl)oxazol-5-yl)methanone] |
| < 500 | CN1CCN(c2nc(C(F)(F)F)c(C(=O)N3CCc4[nH]cnc4[C@H]3c3nc4c(F)cccc4s3)o2)CC1 [Example 1623, (S)-(4-(4-fluorobenzo[d]thiazol-2-yl)-6,7-dihydro-1H-imidazo[4,5-c]pyridin-5(4H)-yl)(2-(4-methylpiperazin-1-yl)-4-(trifluoromethyl)oxazol-5-yl)methanone] |
| < 500 | CN1CCN(c2nc(C(F)(F)F)c(C(=O)N3CCc4[nH]cnc4[C@@H]3c3nc4c(F)cccc4s3)o2)CC1 [Example 1624, (R)-(4-(4-fluorobenzo[d]thiazol-2-yl)-6,7-dihydro-1H-imidazo[4,5-c]pyridin-5(4H)-yl)(2-(4-methylpiperazin-1-yl)-4-(trifluoromethyl)oxazol-5-yl)methanone] |
| < 500 | O=C(c1oc(CCC2CC2)nc1C(F)(F)F)N1CCc2[nH]cnc2[C@H]1c1nc2c(F)cccc2s1 [Example 1625] |
| < 500 | O=C(c1oc(CCC2CC2)nc1C(F)(F)F)N1CCc2[nH]cnc2[C@@H]1c1nc2c(F)cccc2s1 [Example 1626, (R)-(2-(2-cyclopropylethyl)-4-(trifluoromethyl)oxazol-5-yl)(4-(4-fluorobenzo[d]thiazol-2-yl)-6,7-dihydro-1H-imidazo[4,5-c]pyridin-5(4H)-yl)methanone] |
| < 500 | O=C(c1oc(CN2CCOCC2)nc1C(F)(F)F)N1CCc2[nH]cnc2[C@H]1c1nc2ccccc2s1 [Example 1627] |
| < 500 | O=C(c1oc(CN2CCOCC2)nc1C(F)(F)F)N1CCc2[nH]cnc2[C@@H]1c1nc2ccccc2s1 [Example 1628, (R)-(4-(benzo[d]thiazol-2-yl)-6,7-dihydro-1H-imidazo[4,5-c]pyridin-5(4H)-yl)(2-(morpholinomethyl)-4-(trifluoromethyl)oxazol-5-yl)methanone] |
| 500 to 1000 | O=C(N1CCc2[nH]cnc2[C@H]1c1nc2ccccc2s1)C1(c2cnco2)CC1 [Example 1629] |

| AC50 [nM] | SMILES |
| --- | --- |
| 500 to 1000 | O=C(c1sc(C2CC2)nc1Cl)N1CCc2[nH]cnc2[C@H]1c1nc2c(F)cccc2s1 [Example 1631] |
| 1000 to 5000 | O=C(c1sc(C2CC2)nc1Cl)N1CCc2[nH]cnc2[C@@H]1c1nc2c(F)cccc2s1 [Example 1632, (R)-(4-chloro-2-cyclopropylthiazol-5-yl)(4-(4-fluorobenzo[d]thiazol-2-yl)-6,7-dihydro-1H-imidazo[4,5-c]pyridin-5(4H)-yl)methanone] |
| < 500 | O=C(c1sc(N2CCOCC2)nc1C(F)(F)F)N1CCc2[nH]cnc2[C@H]1c1nc2c(F)cccc2s1 [Example 1633, (S)-(4-(4-fluorobenzo[d]thiazol-2-yl)-6,7-dihydro-1H-imidazo[4,5-c]pyridin-5(4H)-yl)(2-morpholino-4-(trifluoromethyl)thiazol-5-yl)methanone] |
| 500 to 1000 | O=C(c1sc(N2CCOCC2)nc1C(F)(F)F)N1CCc2[nH]cnc2[C@@H]1c1nc2c(F)cccc2s1 [Example 1634, (R)-(4-(4-fluorobenzo[d]thiazol-2-yl)-6,7-dihydro-1H-imidazo[4,5-c]pyridin-5(4H)-yl)(2-morpholino-4-(trifluoromethyl)thiazol-5-yl)methanone] |
| < 500 | O=C(c1conc1C(F)(F)F)N1CCc2[nH]cnc2[C@H]1c1nc2c(F)cccc2s1 [Example 1635, (S)-(4-(4-fluorobenzo[d]thiazol-2-yl)-6,7-dihydro-1H-imidazo[4,5-c]pyridin-5(4H)-yl)(3-(trifluoromethyl)isoxazol-4-yl)methanone] |
| 500 to 1000 | O=C(c1conc1C(F)(F)F)N1CCc2[nH]cnc2[C@@H]1c1nc2c(F)cccc2s1 [Example 1636, (R)-(4-(4-fluorobenzo[d]thiazol-2-yl)-6,7-dihydro-1H-imidazo[4,5-c]pyridin-5(4H)-yl)(3-(trifluoromethyl)isoxazol-4-yl)methanone] |
| < 500 | O=C(c1oc(C2(O)CCC2)nc1C(F)(F)F)N1CCc2[nH]cnc2[C@H]1c1nc2c(F)cccc2s1 [Example 1637, (S)-(4-(4-fluorobenzo[d]thiazol-2-yl)-6,7-dihydro-1H-imidazo[4,5-c]pyridin-5(4H)-yl)(2-(1-hydroxycyclobutyl)-4-(trifluoromethyl)oxazol-5-yl)methanone] |
| < 500 | O=C(c1oc(C2(O)CCC2)nc1C(F)(F)F)N1CCc2[nH]cnc2[C@@H]1c1nc2c(F)cccc2s1 [Example 1638, (R)-(4-(4-fluorobenzo[d]thiazol-2-yl)-6,7-dihydro-1H-imidazo[4,5-c]pyridin-5(4H)-yl)(2-(1-hydroxycyclobutyl)-4-(trifluoromethyl)oxazol-5-yl)methanone] |
| 1000 to 5000 | O=C(c1scnc1Cl)N1CCc2[nH]cnc2[C@@H]1c1nc2c(F)cccc2s1 [Example 1639, (R)-(4-chlorothiazol-5-yl)(4-(4-fluorobenzo[d]thiazol-2-yl)-6,7-dihydro-1H-imidazo[4,5-c]pyridin-5(4H)-yl)methanone] |
| 500 to 1000 | O=C(c1scnc1Cl)N1CCc2[nH]cnc2[C@H]1c1nc2c(F)cccc2s1 [Example 1640] |
| < 500 | CN(C)CCn1cc(C(=O)N2CCc3[nH]cnc3[C@H]2c2nc3c(F)cccc3s2)c(C(F)(F)F)n1 [Example 1641] |
| 500 to 1000 | CN(C)CCn1cc(C(=O)N2CCc3[nH]cnc3[C@@H]2c2nc3c(F)cccc3s2)c(C(F)(F)F)n1 [Example 1642, (R)-(1-(2-(dimethylamino)ethyl)-3-(trifluoromethyl)-1H-pyrazol-4-yl)(4-(4-fluorobenzo[d]thiazol-2-yl)-6,7-dihydro-1H-imidazo[4,5-c]pyridin-5(4H)-yl)methanone] |
| 1000 to 5000 | Cn1cc(C(=O)N2CCc3[nH]cnc3[C@@H]2c2nc3c(F)cccc3s2)c(Cl)n1 [Example 1643, (R)-(3-chloro-1-methyl-1H-pyrazol-4-yl)(4-(4-fluorobenzo[d]thiazol-2-yl)-6,7-dihydro-1H-imidazo[4,5-c]pyridin-5(4H)-yl)methanone] |
| < 500 | Cn1cc(C(=O)N2CCc3[nH]cnc3[C@H]2c2nc3c(F)cccc3s2)c(Cl)n1 [Example 1644] |
| 500 to 1000 | O=C([C@@H]1CC1(F)F)N1CCc2[nH]cnc2[C@H]1c1nc2c(F)cccc2s1 [Example 1645] |
| 1000 to 5000 | O=C([C@@H]1CC1(F)F)N1CCc2[nH]cnc2[C@@H]1c1nc2c(F)cccc2s1 [Example 1646, ((S)-2,2-difluorocyclopropyl)((R)-4-(4-fluorobenzo[d]thiazol-2-yl)-6,7-dihydro-1H-imidazo[4,5-c]pyridin-5(4H)-yl)methanone] |

From US20250171438A1 (Agios Pharmaceuticals, Inc., priority 2022, published 2025)
